From PubChem BioAssay AID330 (DTP/NCI, 2004)
Several values for one entry are separate records, joined by “and”; a condition that tells them apart may be missing. Equal values may be shown once. Toxic doses and inconclusive results are not listed. The calls were made as follows: active = survival T/C of 150% or more; inactive = T/C below 125% in these data.

System: P388 leukemia ip, CD2F1 mice, survival T/C
Assay: NCI In Vivo Anticancer Drug Screen. Data for tumor model P388 Leukemia (intraperitoneal) in CD2F1 (CDF1) mice
Details: endpoint: median survival time, higher = longer survival
In short: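 Mice carrying the transplanted tumor received test compound or vehicle. Survival was recorded in each group, and the value is the treated-group measurement divided by that of the vehicle-treated control group.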

[1] = dose: 50.0 mg/kg/injection, schedule: Q01DX005 (ip), vehicle: saline with Tween-80
[2] = dose: 6.25 mg/kg/injection, schedule: Q01DX009 (ip), vehicle: saline
[3] = dose: 12.5 mg/kg/injection, schedule: Q01DX009 (ip), vehicle: saline
[4] = dose: 100.0 mg/kg/injection, schedule: Q01DX005 (ip), vehicle: saline with Tween-80
[5] = dose: 200.0 mg/kg/injection, schedule: Q01DX005 (ip), vehicle: saline with Tween-80
[6] = dose: 50.0 mg/kg/injection, schedule: Q01DX009 (ip), vehicle: Klucel (hydroxypropylcellulose) (HPC)
[7] = dose: 100.0 mg/kg/injection, schedule: Q01DX009 (ip), vehicle: Klucel (hydroxypropylcellulose) (HPC)
[8] = dose: 200.0 mg/kg/injection, schedule: Q01DX009 (ip), vehicle: Klucel (hydroxypropylcellulose) (HPC)
[9] = dose: 60.0 mg/kg/injection, schedule: Q01DX005 (ip), vehicle: Klucel (hydroxypropylcellulose) (HPC)
[10] = dose: 120.0 mg/kg/injection, schedule: Q01DX005 (ip), vehicle: Klucel (hydroxypropylcellulose) (HPC)
[11] = dose: 240.0 mg/kg/injection, schedule: Q01DX005 (ip), vehicle: Klucel (hydroxypropylcellulose) (HPC)
[12] = dose: 60.0 mg/kg/injection, schedule: Q01DX005 (ip), vehicle: saline with Tween-80
[13] = dose: 120.0 mg/kg/injection, schedule: Q01DX005 (ip), vehicle: saline with Tween-80
[14] = dose: 240.0 mg/kg/injection, schedule: Q01DX005 (ip), vehicle: saline with Tween-80
[15] = dose: 50.0 mg/kg/injection, schedule: Q01DX005 (ip), vehicle: Klucel (hydroxypropylcellulose) (HPC)
[16] = dose: 100.0 mg/kg/injection, schedule: Q01DX005 (ip), vehicle: Klucel (hydroxypropylcellulose) (HPC)
[17] = dose: 200.0 mg/kg/injection, schedule: Q01DX005 (ip), vehicle: Klucel (hydroxypropylcellulose) (HPC)

Measured: T/C

C=C(N=[N+]=[N-])c1ccccc1
inactive: dose: 6.25 mg/kg/injection, schedule: Q01DX009 (ip), vehicle: other 101 % of control | dose: 12.5 mg/kg/injection, schedule: Q01DX009 (ip), vehicle: other 106 % of control | dose: 25.0 mg/kg/injection, schedule: Q01DX009 (ip), vehicle: other 112 % of control | dose: 50.0 mg/kg/injection, schedule: Q01DX009 (ip), vehicle: other 117 % of control | dose: 100.0 mg/kg/injection, schedule: Q01DX009 (ip), vehicle: other 107 % of control

COc1cc2c(c(OC)c1OC)-c1ccc(SC)c(=O)cc1[C@@H](NC1OCC(O)C(O)C1O)CC2 (stereo not given in full)
active: dose: 24.0 mg/kg/injection, schedule: Q01DX009 (ip), vehicle: other 152 % of control | dose: 48.0 mg/kg/injection, schedule: Q01DX009 (ip), vehicle: other 155 % of control
inactive: dose: 1.5 mg/kg/injection, schedule: Q01DX009 (ip), vehicle: water 105 % of control | dose: 3.0 mg/kg/injection, schedule: Q01DX009 (ip), vehicle: water 117 % of control | dose: 6.0 mg/kg/injection, schedule: Q01DX009 (ip), vehicle: water 113 % of control | dose: 12.0 mg/kg/injection, schedule: Q01DX009 (ip), vehicle: water 121 % of control | dose: 24.0 mg/kg/injection, schedule: Q01DX009 (ip), vehicle: water 123 % of control

CCOC(=O)C1C(c2ccc(C)cc2)C(C#N)C(=O)NC1(O)c1ccccc1 (stereo not given)
inactive: dose: 100.0 mg/kg/injection, schedule: Q04DX002 (ip), vehicle: Klucel (hydroxypropylcellulose) (HPC) 99 % of control | dose: 200.0 mg/kg/injection, schedule: Q04DX002 (ip), vehicle: Klucel (hydroxypropylcellulose) (HPC) 95 % of control | dose: 400.0 mg/kg/injection, schedule: Q04DX002 (ip), vehicle: Klucel (hydroxypropylcellulose) (HPC) 98 % of control

COc1cc(N=Nc2ccccc2)cc(/C=N\NC(=S)Nc2cccc(C)c2)c1O
inactive: [1] 87 % of control

C=CC[n+]1ccc(-c2cc[n+](CC=C)cc2)cc1
inactive: [2] 115 % of control | [3] 112 % of control and 117 % of control

CCCCCCCCCC[N+]1(CC)CCCCC1
inactive: dose: 3.12 mg/kg/injection, schedule: Q01DX009 (ip), vehicle: saline 119 % of control | [2] 121 % of control | [3] 105 % of control

C[C@]12CC[C@@H]3c4ccc(OCCO)c([N+](=O)[O-])c4CC[C@H]3[C@@H]1CCC2=O
inactive: [1] 104 % of control | [4] 104 % of control | [5] 97 % of control

CN1CCN(CC(O)Cn2c(=O)c3c(nc(N4CCN(C)CC4)n3C)n(C)c2=O)CC1 (stereo not given)
inactive: [6] 87 % of control | [7] 102 % of control | [8] 105 % of control

O=c1cc(-c2ccccc2)c(N=Nc2ccccc2)c(S)n1-c1ccccc1
inactive: [1] 87 % of control | [4] 88 % of control | [5] 90 % of control

Cc1[nH]nc2c1NC(=O)OC(C)(C)C2
inactive: [1] 106 % of control | [4] 99 % of control | [5] 101 % of control

C=C(C)C1(C(=O)OCC(Cl)(Cl)Cl)NC(=O)C(NC(=O)COc2ccccc2)=CO1 (stereo not given)
inactive: [1] 99 % of control | [4] 88 % of control | [5] 95 % of control

O=C(NNC(=O)C(Cl)Cl)c1ccccn1
inactive: [6] 99 % of control | [7] 101 % of control | [8] 109 % of control

COP(=O)(N/N=C/C(=O)O)OC
inactive: dose: 12.5 mg/kg/injection, schedule: Q01DX009 (ip), vehicle: water 104 % of control | dose: 25.0 mg/kg/injection, schedule: Q01DX009 (ip), vehicle: water 103 % of control | dose: 50.0 mg/kg/injection, schedule: Q01DX009 (ip), vehicle: water 101 % of control | dose: 100.0 mg/kg/injection, schedule: Q01DX009 (ip), vehicle: water 96 % of control | dose: 200.0 mg/kg/injection, schedule: Q01DX009 (ip), vehicle: water 95 % of control

Cc1cccc(C(O)c2cnc(C)n2Cc2ccccc2)c1 (stereo not given)
inactive: [9] 101 % of control | [10] 109 % of control | [11] 100 % of control

CC(=O)OC1C2C3C2C2C1C32 (stereo not given)
inactive: dose: 100.0 mg/kg/injection, schedule: Q04DX002 (ip), vehicle: other 113 % of control | dose: 200.0 mg/kg/injection, schedule: Q04DX002 (ip), vehicle: other 106 % of control | dose: 400.0 mg/kg/injection, schedule: Q04DX002 (ip), vehicle: other 103 % of control

CCOC(=O)CSc1cc(O)c2ccccc2c1N=Nc1ccc(C(=O)OCC)cc1
inactive: [1] 104 % of control | [4] 110 % of control | [5] 114 % of control

Oc1cc2c(cc1C(c1ccc(F)cc1)N1CCCC1)OCO2 (stereo not given)
inactive: [9] 109 % of control | [10] 111 % of control | [11] 111 % of control

O=C(Nc1ccccc1C(=O)NCC1CC1)c1cccs1
inactive: [12] 106 % of control | [13] 100 % of control | [14] 99 % of control

CCOC(=O)c1cccc(N)c1C(=O)OCCN(CC)CC
inactive: [15] 93 % of control | [16] 87 % of control | [17] 99 % of control

Br/C(C=Nc1ccccc1)=C\Nc1ccccc1
inactive: dose: 100.0 mg/kg/injection, schedule: Q04DX003 (ip), vehicle: saline with Tween-80 118 % of control | dose: 200.0 mg/kg/injection, schedule: Q04DX003 (ip), vehicle: saline with Tween-80 109 % of control | dose: 400.0 mg/kg/injection, schedule: Q04DX003 (ip), vehicle: saline with Tween-80 104 % of control

Cc1ccc(-c2nnc3cc(C)n4nnnc4n23)cc1
inactive: dose: 6.25 mg/kg/injection, schedule: Q01DX005 (ip), vehicle: Klucel (hydroxypropylcellulose) (HPC) 101 % of control | dose: 12.5 mg/kg/injection, schedule: Q01DX005 (ip), vehicle: Klucel (hydroxypropylcellulose) (HPC) 108 % of control | dose: 25.0 mg/kg/injection, schedule: Q01DX005 (ip), vehicle: Klucel (hydroxypropylcellulose) (HPC) 108 % of control | [15] 101 % of control | [16] 105 % of control | [17] 107 % of control

Cc1ccc2c(N(C)C)cc(N(C)C)nc2c1C
inactive: [6] 104 % of control | [7] 105 % of control

OCCC[N+]12CCCN1CCC2
inactive: dose: 50.0 mg/kg/injection, schedule: Q01DX009 (ip), vehicle: saline 98 % of control | dose: 100.0 mg/kg/injection, schedule: Q01DX009 (ip), vehicle: saline 104 % of control

CC(C)=CCC(OC(=O)C=C(C)C)c1cc(O)c2c(O)ccc(O)c2c1O.[Fe] (stereo not given)
inactive: dose: 100.0 mg/kg/injection, schedule: Q04DX002 (ip), vehicle: saline with Tween-80 92 % of control | dose: 200.0 mg/kg/injection, schedule: Q04DX002 (ip), vehicle: saline with Tween-80 92 % of control | dose: 400.0 mg/kg/injection, schedule: Q04DX002 (ip), vehicle: saline with Tween-80 93 % of control

COC(=O)/C=C\SC(=S)C1CCCC1=N (stereo not given)
inactive: dose: 50.0 mg/kg/injection, schedule: Q01DX009 (ip), vehicle: saline with Tween-80 98 % of control | dose: 100.0 mg/kg/injection, schedule: Q01DX009 (ip), vehicle: saline with Tween-80 94 % of control | dose: 200.0 mg/kg/injection, schedule: Q01DX009 (ip), vehicle: saline with Tween-80 91 % of control

CCN(CC)CCC(O)(c1ccc2c(c1)OCO2)c1cc(OC)c(OC)c(OC)c1 (stereo not given)
inactive: [15] 103 % of control and 93 % of control and 94 % of control | [17] 101 % of control

Nc1ccc(S(=O)(=O)NCCSSCCNS(=O)(=O)c2ccc(N)cc2)cc1
inactive: [12] 97 % of control | [13] 100 % of control | [14] 105 % of control

COc1cc2c(cc1C(C)c1cc(OC)c(OC)c(OC)c1)OCO2 (stereo not given)
inactive: [15] 99 % of control | [16] 97 % of control | [17] 91 % of control

O=c1[nH]c(=O)n(CC(O)CO)cc1/C=C/Br (stereo not given)
inactive: dose: 100.0 mg/kg/injection, schedule: Q01DX001 (ip), vehicle: saline with Tween-80 106 % of control | dose: 200.0 mg/kg/injection, schedule: Q01DX001 (ip), vehicle: saline with Tween-80 101 % of control | dose: 400.0 mg/kg/injection, schedule: Q01DX001 (ip), vehicle: saline with Tween-80 100 % of control

OCCNC(Cc1ccccc1)c1c(O)ccc2ccccc12 (stereo not given)
inactive: [15] 100 % of control | [16] 94 % of control | [17] 100 % of control
